Measurements from patent US20110166121A1 (LG LIFE SCIENCES LTD., priority 2008, published 2011).
Several values for one entry are separate records, joined by “and”; a condition that tells them apart may be missing. Equal values may be shown once.

How the values were obtained:
[1] = test system: Human platelet aggregation caused by ADP; assay: Inhibition of ADP-induced platelet aggregation (Mimic-human PRP); format: cell-based; conditions: 20 μM ADP, human platelet concentrate diluted with PPP, absorption at 595 nm
Summary of the method: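 Ki came from non-linear sigmoidal fits of inhibition, measured as the 3-min rise in absorbance at 595 nm after 20 μM ADP, relative to 0/20 μM ADP controls. Platelets (3–4×10^8/mL in PPP-diluted human PRP) were exposed to 0.01–30 μM compound for 20 min at room temperature beforehand.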

Human P2Y12 receptor = target: T1, Human P2Y12 receptor (Homo sapiens, UniProt Q9H244); assay: Human P2Y12 receptor cell membrane binding assay with [3H] 2-Mes-ADP; conditions: 1 nM [3H] 2-Mes-ADP; for IC50: membranes of HEK cells expressing P2Y12 receptor, read-out: Binding activity (IC50); for inhibition at 30 µM: 30 μM compound
T1 construct: expressed in transfected cells; host or cells: HEK cells
T1 sequence (Q9H244 whole entry): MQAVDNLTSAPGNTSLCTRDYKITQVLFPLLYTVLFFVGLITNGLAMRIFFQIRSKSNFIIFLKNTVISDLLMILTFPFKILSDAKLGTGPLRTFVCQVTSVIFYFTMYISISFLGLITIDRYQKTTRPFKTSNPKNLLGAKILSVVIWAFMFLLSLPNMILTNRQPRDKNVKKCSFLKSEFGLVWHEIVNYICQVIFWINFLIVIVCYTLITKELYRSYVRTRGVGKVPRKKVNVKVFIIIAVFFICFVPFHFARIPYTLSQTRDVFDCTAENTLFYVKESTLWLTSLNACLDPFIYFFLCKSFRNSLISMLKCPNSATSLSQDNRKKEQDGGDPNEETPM
Experimental: Human P2Y12 Receptor Cell Membrane Binding Assay with [^3H] 2-Mes-ADP
Whether test compounds bind to P2Y12 receptor is measured by [3H]-2MesADP binding in HEK cells expressing P2Y12 receptor. The efficacy according to the amount of test compound can be known through the above test, competitive binding test to P2Y12 receptor, in which the binding material (2-Mes-ADP) is labeled with radioactivity isotope and then the extent of inhibition against the binding of radioactively labeled material is measured.
Preparation of P2Y12 Membrane Protein Fraction
Harvested P2Y12 cells were resuspended with Hypotonic buffer (10 mM HEPES, 10 mM NaCl, 1 mM EDTA, 1 mM EGTA pH 7.4) containing protease inhibitor cocktail. Following the incubation on ice for 15 min, cells were homogenized on ice (Glass/Teflon homogenizer; 1,000 rpm, 10 strokes). The supernant was taken from centrifugation at 500×g for 15 min and then recentrifuged the supernant at 30,000 rpm for 30 min. The membrane pellet was adjusted to 1 mg/mL concentration and stored at −80° C.
P2Y12 Receptor Cell Membrane Binding Assay with [3H] 2-Mes-ADP
The volume of 100 μL of 200 μg membrane protein was aliquoted into 96 well plate. 50 μL volume of test compounds and [^3H] 2-Mes-ADP (final: 1 nM) were added into each well. The total reaction of 0.2 ml/well was incubated for 1 hour at R.T. The reaction was terminated by filtration through GF/B filter using a 96-well cell harvester. […] Radioactivity bound to P2Y12 receptor membrane was counted in a scintillation counter. Total binding was determined with CPM of test group having no compound and non-specific binding was determined with CPM of test group containing 10 μM 2-Mes-ADP. Binding inhibition percent was calculated as follows: [100−(specific binding in the presence of test material/specific binding in the absence of test material×100)].

inhibition at 30 µM (Human P2Y12 receptor) [%] | SMILES | Ki [1] | IC50 (Human P2Y12 receptor) [nM]
23.6 | CCc1cc2c(N3CCc4c([nH]n(C)c4=O)C3)nc(N3CCNC(=O)C3)nc2s1 [Example 6-41, 6-[6-Ethyl-2-(3-oxo-piperazin-1-yl)-thieno[2,3-d]pyrimidin-4-yl]-2-methyl-1,2,4,5,6,7-hexahydro-pyrazolo[3,4-c]pyridin-3-one] |  | 
26.4 | CCc1cc2c(N3CCc4c([nH]n(C)c4=O)C3)nc(OCC(O)CO)nc2s1 (stereo not drawn) [Example 6-42, 6-[2-(2,3-Dihydroxy-propoxy)-6-ethyl-thieno[2,3-d]pyrimidin-4-yl]-2-methyl-1,2,4,5,6,7-hexahydro-pyrazolo[3,4-c]pyridin-3-one] |  | 

The next lines start with the compound.

SMILES | inhibition at 30 µM (Human P2Y12 receptor) [%] | Ki [1] | IC50 (Human P2Y12 receptor) [nM]
CCCc1cc2c(N3CCn4c(nnc4C(F)(F)F)C3)nc(N3CCNC(=O)C3)nc2s1 [Example 1-1, 4-[6-Propyl-4-(3-trifluoromethyl-5,6-dihydro-8H-[1,2,4]triazolo[4,3-a]pyrazin-7-yl)-thieno[2,3-d]pyrimidin-2-yl]-piperazin-2-one] |  | 130 nM | 20
CCCc1cc2c(N3CCn4c(nnc4C(F)(F)F)C3)nc(N3CCN(C)CC3)nc2s1 [Example 1-3, 7-[2-(4-Methyl-piperazin-1-yl)-6-propyl-thieno[2,3-d]pyrimidin-4-yl]-3-trifluoromethyl-5,6,7,8-tetrahydro-[1,2,4]triazolo[4,3-a]pyrazine] |  | 164 nM | 92
CCCc1cc2c(N3CCn4c(nnc4C(F)(F)F)C3)nc(N3CCNCC3)nc2s1 [Example 1-4, 7-(2-piperazin-1-yl-6-propyl-thieno[2,3-d]pyrimidin-4-yl)-3-trifluoromethyl-5,6,7,8-tetrahydro-[1,2,4]triazolo[4,3-a]pyrazine] |  | 300 nM | 64
CCCc1cc2c(N3CCn4c(nnc4C(F)(F)F)C3)nc(N3CCN(CCO)CC3)nc2s1 [Example 1-5, 2-{4-[6-Propyl-4-(3-trifluoromethyl-5,6-dihydro-8H-[1,2,4]triazolo[4,3-a]pyrazin-7-yl)-thieno[2,3-d]pyrimidin-2-yl]-piperazin-1-yl}-ethanol] |  | 160 nM and 210 nM | 96
CCCc1cc2c(N3CCn4c(nnc4C(F)(F)F)C3)nc(N3CCN(C(=O)OCC)CC3)nc2s1 [Example 1-7, 4-[6-Propyl-4-(3-trifluoromethyl-5,6-dihydro-8H-[1,2,4]triazolo[4,3-a]pyrazin-7-yl)-thieno[2,3-d]pyrimidin-2-yl]-piperazine-1-carboxylic acid ethyl ester] |  | 770 nM | 220
CCCc1cc2c(N3CCn4c(nnc4C(F)(F)F)C3)nc(N3CCN(S(=O)(=O)CC)CC3)nc2s1 [Example 1-8, 7-[2-(4-Ethanesulfonyl-piperazin-1-yl)-6-propyl-thieno[2,3-d]pyrimidin-4-yl]-3-trifluoromethyl-5,6,7,8-tetrahydro-[1,2,4]triazolo[4,3-a]pyrazine] |  | 300 nM | 56
CCCc1cc2c(N3CCn4c(nnc4C(F)(F)F)C3)nc(N3CCN(C(=O)CO)CC3)nc2s1 [Example 1-9, 2-Hydroxy-1-{4-[6-propyl-4-(3-trifluoromethyl-5,6-dihydro-8H-[1,2,4]triazolo[4,3-a]pyrazin-7-yl)-thieno[2,3-d]pyrimidin-2-yl]-piperazin-1-yl}-ethanone] |  | 500 nM | 70
CCCc1cc2c(N3CCn4c(nnc4C(F)(F)F)C3)nc(NCCO)nc2s1 [Example 1-10, 2-[6-Propyl-4-(3-trifluoromethyl-5,6-dihydro-8H-[1,2,4]triazolo[4,3-a]pyrazin-7-yl)-thieno[2,3-d]pyrimidin-2-ylamino]-ethanol] |  | 178 nM | 110
CCCc1cc2c(N3CCn4c(nnc4C(F)(F)F)C3)nc(NCC3CCN(Cc4ccccc4)C3)nc2s1 (stereo not drawn) [Example 1-11, (1-Benzyl-pyrrolidin-3-ylmethyl)-[6-propyl-4-(3-trifluoromethyl-5,6-dihydro-8H-[1,2,4]triazolo[4,3-a]pyrazin-7-yl)-thieno[2,3-d]pyrimidin-2-yl]-amine] |  | 1380 nM | 260
CCCc1cc2c(N3CCn4c(nnc4C(F)(F)F)C3)nc(N3CCC(CN)C3)nc2s1 (stereo not drawn) [Example 1-12, C-{1-[6-Propyl-4-(3-trifluoromethyl-5,6-dihydro-8H-[1,2,4]triazolo[4,3-a]pyrazin-7-yl)-thieno[2,3-d]pyrimidin-2-yl]-pyrrolidin-3-yl}-methylamine] |  | 226 nM | 84
CCCc1cc2c(N3CCn4c(nnc4C(F)(F)F)C3)nc(N3CC[C@@H](N)C3)nc2s1 [Example 1-13, (R)-1-[6-Propyl-4-(3-trifluoromethyl-5,6-dihydro-8H-[1,2,4]triazolo[4,3-a]pyrazin-7-yl)-thieno[2,3-d]pyrimidin-2-yl]-pyrrolidin-3-ylamine] |  | 90 nM | 83
CCCc1cc2c(N3CCn4c(nnc4C(F)(F)F)C3)nc(N3CC[C@H](N)C3)nc2s1 [Example 1-14, (S)-1-[6-Propyl-4-(3-trifluoromethyl-5,6-dihydro-8H-[1,2,4]triazolo[4,3-a]pyrazin-7-yl)-thieno[2,3-d]pyrimidin-2-yl]-pyrrolidin-3-ylamine] |  | 34 nM | 60
CCCc1cc2c(N3CCc4c(nc(C(F)(F)F)nc4C(F)(F)F)C3)nc(N3CCNC(=O)C3)nc2s1 [Example 6-33, 4-[4-(2,4-Bis-trifluoromethyl-5,8-dihydro-6H-pyrido[3,4-d]pyrimidin-7-yl)-6-propyl-thieno[2,3-d]pyrimidin-2-yl]-piperazin-2-one] |  |  | 2370
CCc1cc2c(N3CCc4c(nc(C)nc4C(F)(F)F)C3)nc(N3CCNC(=O)C3)nc2s1 [Example 6-34, 4-[6-Ethyl-4-(2-methyl-4-trifluoromethyl-5,8-dihydro-6H-pyrido[3,4-d]pyrimidin-7-yl)-thieno[2,3-d]pyrimidin-2-yl]-piperazin-2-one] |  |  | 120
CCc1cc2c(N3CCc4c(nc(C)nc4C(F)(F)F)C3)nc(OCC(O)CO)nc2s1 (stereo not drawn) [Example 6-35, 3-[6-Ethyl-4-(2-methyl-4-trifluoromethyl-5,8-dihydro-6H-pyrido[3,4-d]pyrimidin-7-yl)-thieno[2,3-d]pyrimidin-2-yloxy]-propane-1,2-diol] |  |  | 2300
CCCc1cc2c(N3CCc4c(nc(C)nc4C(F)(F)F)C3)nc(N3CCNC(=O)C3)nc2s1 [Example 6-36, 4-[4-(2-Methyl-4-trifluoromethyl-5,8-dihydro-6H-pyrido[3,4-d]pyrimidin-7-yl)-6-propyl-thieno[2,3-d]pyrimidin-2-yl]-piperazin-2-one] |  |  | 640
CCc1cc2c(N3CCc4c(nc(-c5ccccc5)nc4C(F)(F)F)C3)nc(N3CCNC(=O)C3)nc2s1 [Example 6-37, 4-[6-Ethyl-4-(2-phenyl-4-trifluoromethyl-5,8-dihydro-6H-pyrido[3,4-d]pyrimidin-7-yl)-thieno[2,3-d]pyrimidin-2-yl]-piperazin-2-one] |  |  | 400
CCCc1cc2c(N3CCc4c(nc(-c5ccccc5)nc4C(F)(F)F)C3)nc(N3CCNC(=O)C3)nc2s1 [Example 6-38, 4-[4-(2-Phenyl-4-trifluoromethyl-5,8-dihydro-6H-pyrido[3,4-d]pyrimidin-7-yl)-6-propyl-thieno[2,3-d]pyrimidin-2-yl]-piperazin-2-one] |  |  | 4420
CCc1cc2c(N3CCc4c(nc(-c5ccoc5)nc4C(F)(F)F)C3)nc(N3CCNC(=O)C3)nc2s1 [Example 6-39, 4-[6-Ethyl-4-(2-furan-3-yl-4-trifluoromethyl-5,8-dihydro-6H-pyrido[3,4-d]pyrimidin-7-yl)-thieno[2,3-d]pyrimidin-2-yl]-piperazin-2-one] |  |  | 1500
CCc1cc2c(N3CCc4c(nc(-c5ccoc5)nc4C(F)(F)F)C3)nc(NCC(O)CO)nc2s1 (stereo not drawn) [Example 6-40, 3-[6-Ethyl-4-(2-furan-3-yl-4-trifluoromethyl-5,8-dihydro-6H-pyrido[3,4-d]pyrimidin-7-yl)-thieno[2,3-d]pyrimidin-2-ylamino]-propane-1,2-diol] |  |  | 1950
CCc1cc2c(N3CCc4c([nH]n(CCO)c4=O)C3)nc(N3CCNC(=O)C3)nc2s1 [Example 6-43, 6-[6-Ethyl-2-(3-oxo-piperazin-1-yl)-thieno[2,3-d]pyrimidin-4-yl]-2-(2-hydroxy-ethyl)-1,2,4,5,6,7-hexahydro-pyrazolo[3,4-c]pyridin-3-one] |  |  | 46400
CCc1cc2c(N3CCc4c([nH]n(-c5ccccc5)c4=O)C3)nc(N3CCNC(=O)C3)nc2s1 [Example 6-44, 6-[6-Ethyl-2-(3-oxo-piperazin-1-yl)-thieno[2,3-d]pyrimidin-4-yl]-2-phenyl-1,2,4,5,6,7-hexahydro-pyrazolo[3,4-c]pyridin-3-one] |  |  | 21500
